Consider seven compounds from US8440641B2, “Phthalocyanine salt formulations” (Case Western Reserve University, priority 2009, dated 2013).

Format in all cases: physicochemical
A short description of series [1]: Chemical stability (air, chromatography).
Series [2] can be described thus: Qualitative solubility in representative organic solvents. The settings on record: for solubility in CH2Cl2: CH2Cl2, qualitative; for solubility in dimethylformamide / solubility in ethanol / solubility in hexanes / solubility in toluene: qualitative.
Series [3] in a line: Salt concentration in polar and nonpolar solvents (Table 2).
Series [4] in a line: Concentration of salt in solution, gel and film. The settings on record: Tween 80 21.6 mg. An excerpt: The identification of water soluble phthalocyanine salts also makes possible the preparation of aqueous gel formulations of phthalocyanine salts. […] These phthalocyanine salt-containing gels provide gel formulations of phthalocyanine salts suitable for topical use. Thin films of the gels can also be dried to form coherent, stable, water-swellable films. These films provide formulations for phthalocyanine salt-containing patches that can be used for topical administration.

As to “[CH3C(O)C(O)OSiPcOSi(CH3)2(CH2)3NH(CH3)2]^+Cl^− [Compound 29]”, in series [1] (air), the “time of hydrolysis by air to Pc 4” value is listed as ≤ 2 h. For the same compound, in series [2], the “solubility in CH2Cl2” value is “soluble”, the solubility in dimethylformamide entry is “soluble”, the solubility in ethanol result is reported as “soluble” and the solubility in hexanes entry was “insoluble”. For the same compound, the solubility in toluene result in series [2] is on record as “moderately soluble”.
`CCC(=O)O[Si-2]123(O[Si](C)(C)CCCN(C)C)n4c5c6ccccc6c4N=C4c6ccccc6C(=[N+]41)N=c1c4ccccc4c(n12)=NC1=[N+]3C(=N5)c2ccccc21` [Compound 3, CH3CH2C(O)OSiPcOSi(CH3)2(CH2)3N(CH3)2]: in series [1] (air), the stability in air entry is given as “stable”. In addition, in series [2], the “solubility in CH2Cl2” value is reported as “soluble”, the solubility in dimethylformamide result is “soluble”, the solubility in ethanol result was “soluble” and the solubility in hexanes result was “insoluble”. In series [2], the solubility in toluene entry is on record as “moderately soluble”.
On to `CC(=O)O[Si-2]123(O[Si](C)(C)CCCN(C)C)n4c5c6ccccc6c4N=C4c6ccccc6C(=[N+]41)N=c1c4ccccc4c(n12)=NC1=[N+]3C(=N5)c2ccccc21` [Compound 2, CH3C(O)OSiPcOSi(CH3)2(CH2)3N(CH3)2], for which, in series [1] (air), the stability in air entry is listed as “stable”. Moreover, in series [2], the “solubility in CH2Cl2” value is “soluble”, the solubility in dimethylformamide entry is listed as “soluble”, the solubility in ethanol entry is listed as “soluble” and the solubility in hexanes entry is on record as “insoluble”. Also, in series [2], the solubility in toluene entry is listed as “moderately soluble”.
As to “[HOSiPcOSi(CH3)2(CH2)3NH(CH2)21]^+[OC(O)CHOHCH2C(O)OH]^− [Compound 6]”, the “salt concentration, […] aqueous Tween 80” value in series [3] ([…] aqueous Tween 80) was 0.165 mM. Besides, in series [3] (aqueous solution, in words), the “solubility in aqueous solution” value is listed as “show solubility”. In series [3] (hexanes), the “salt concentration, hexanes” value was 0.0006 mM. In addition, the “solubility in hexanes and mineral oil” value in series [3] (hexanes, mineral oil (Nujol), in words) is “little”. For the same compound, in series [3] (mineral oil), the “salt concentration, mineral oil” value worked out at 0.0002 mM. Besides, in series [2], the “solubility in CH2Cl2” value is reported as “soluble”, the solubility in dimethylformamide result was “soluble”, the solubility in ethanol entry was “soluble” and the solubility in hexanes result is recorded as “insoluble”. The solubility in toluene entry in series [2] is “moderately soluble”. Besides, in series [4] (film: Pc 4 0.33 mg, HEC 118 mg), the product conc was ~0.2%. In addition, the product conc in series [4] (gel: Pc 4 0.33 mg, H2O 3.0 mL, HEC 118 mg) is given as ~0.01%. The product conc in series [4] (solution: Pc 4 0.33 mg, H2O 3.0 mL) stood at 0.11 mg/mL.
In the case of `CO[Si]1(O[Si](C)(C)CCCN(C)C)n2c3c4ccccc4c2N=C2N=C(N=c4c5ccccc5c(n41)=NC1=NC(=N3)c3ccccc31)c1ccccc12` (stereo not shown) [Compound 4, CH3OSiPcOSi(CH3)2(CH2)3N(CH3)2], in series [1] (air), the stability in air result is “stable”. In addition, in series [2], the “solubility in CH2Cl2” value is on record as “soluble”, the solubility in dimethylformamide entry was “soluble”, the solubility in ethanol result is listed as “soluble” and the solubility in hexanes result is on record as “insoluble”. Also, the solubility in toluene entry in series [2] is given as “moderately soluble”.
Consider “[HOSiPcOSi(CH3)2(CH2)3NH(CH3)2]^+[(HOC(O)(CH2)10Si(CH3)2)(Si(CH3)2O)˜120(Si(CH3)2(CH2)10C(O)O]^− [Compound 16]”, for which the stability on chromatography result in series [1] (Biobeads S-X3, CH2Cl2) was “decomposed to Pc 4 and the carboxysiloxane”. Besides, in series [2], the “solubility in CH2Cl2” value is “soluble”, the solubility in dimethylformamide entry is reported as “soluble”, the solubility in ethanol result is “soluble” and the solubility in hexanes entry is “insoluble”. Also, the solubility in toluene entry in series [2] was “moderately soluble”.
`CN(C)CCC[Si](C)(C)O[Si-2]123(F)n4c5c6ccccc6c4N=C4c6ccccc6C(=[N+]41)N=c1c4ccccc4c(n12)=NC1=[N+]3C(=N5)c2ccccc21` [Compound 1, FSiPcOSi(CH3)2(CH2)3N(CH3)2]: the stability in air entry in series [1] (air) is “stable”. Besides, in series [2], the “solubility in CH2Cl2” value is recorded as “soluble”, the solubility in dimethylformamide entry is “soluble”, the solubility in ethanol result is “soluble” and the solubility in hexanes result was “insoluble”. In addition, the solubility in toluene result in series [2] was “moderately soluble”.
